Assays:
[1] = system: SBC3 cells; assay: Immunoblotting of cell lysates (pDRP1, p53, DNA damage markers); type: cell-based, human
Procedure: (§1) SCLC total cell lysates were prepared using RIPA (radioimmunoprecipitation assay lysis buffer) lysis buffer. Protein concentration was determined using DC Protein Assay Kit Bio-Rad (Hercules, CA). Samples were then run on SDS-PAGE in 4-15% polyacrylamide gels and transferred onto Immobilon membranes (Millipore, MO), blocked, incubated with specific primary antibodies at 4° C. overnight, and subsequently developed with secondary antibodies. The following primary antibody were used: pan-Actin, Phospho-DRP1 (Ser^616), Phospho-DRP1 (Ser^637), Histone H2B (V^119), Phospho-Histone H2A.X (Ser^139), Phospho-P53 (Ser^15), P-53, Cleaved PARP (Asp^214) (D64E10), Phospho-Chk1 (Ser^345) (133D3) and p21 were from Cell Signaling Technology (City of Industry, CA), β-Actin (Sigma-Aldrich, St. Luis, MO), Phospho RNA Polymerase II (S2) antibody (Bethyl Lab, Montgomery, TX), RNA Polymerase II CTD4H8 (BioLegend, San Diego, CA), DHODH (E-8), DRP1 (C-5), GAPDH (0411), c-Myc (9E10), Tom20 (F-10), FisI (B-5), OPA1 (D-9), antibodies from Santa Cruz Biotechnology (Dallas, TX) and MFN2 (Abcam, Boston, MA) and Chk1, MDM2, Cyclin CDK4 and D1, and E2F1 (Proteintech, Rosemont, IL).

[2] = system: SBC5 SCLC cell line; assay: Immunoblotting of DRP1 phosphorylation; type: cell-based, human; conditions: SBC5 as printed
Procedure: as §1
Although mitochondrial areas of SBC5 cells were not affected with treatment, elongations of individual mitochondria were detected with each treatment.

[3] = system: pDRP1 (Ser616) in SBC3 cells; assay: pDRP1 Ser616 immunofluorescence staining, QuPath; type: cell-based, human; conditions: SBC3, Teri overnight
Procedure: (§2) SBC3 and SBC5 cells were grown on glass coverslips and treated with Teri overnight. Next, cells were fixed in 4% paraformaldehyde, permeabilized, and blocked before incubating with pDRP1 (Ser^616) antibody followed by Alexa 488 secondary antibody. This was followed by staining with Tom20 (F-10) antibody. A far-red dye was used for cytoplasmic staining. Fluorescent images were acquired on an Axio Observer 7 inverted microscope (Carl Zeiss, Jena, Germany). Nuclei and DRP1 were stained with DAPI and Alexa 488 secondary antibody. All imaging was performed using a 40×/0.95 NA Plan-Apochromat objective with a final per pixel scaling of 0.147 by 0.147 microns. Within each 3×3 field of image view (>200 cells per image), QuPath 0.2.0M9 was used to detect cell nuclei, a cytoplasmic area around the nucleus was expanded for analysis, followed by limiting the area of that blind expansion based on the presence of the cytoplasmic dye. […] The mean pDRP1 signal intensity was then measured within that area. The green intensity sum of these areas was calculated per cell and then averaged for each sample image.
(§3) Additionally, SBC3 and SBC5 cells were stained with pDRP1 Ser^616 antibody (2° ab Alexa488), and the phosphorylation level was analyzed with QuPath 0.2.0M9 software.

[4] = system: pDRP1 (Ser616) in SBC5 cells; assay: pDRP1 Ser616 immunofluorescence staining, QuPath; type: cell-based, human; conditions: SBC5, Teri overnight
Procedure: as §2, §3

[5] = system: H446 spheroids; assay: Immunoblotting of spheroid lysates; type: cell-based, human; conditions: for DRP1 phosphorylation at Ser616: Teri 1600 and 3200 nM
Procedure: as §1
(§4) SBC3 and H446 cells were plated at a density of 10,000 cells per well in 96-well ULA round-bottomed plates (S-Bio, Hudson, NH) and incubated for 72 h at 37° C., 5% CO2, and 95% humidity. Spheroids were transferred to low cell attachment dishes, grown for two days, and treated with drug. After treatment, spheroid samples were run with Western blot assay. For spheroid mitochondria visualization, they were stained with 250 nM MitoTracker® Red CMXRos and Hoechst from ThermoFisher Scientific (Waltham, MA) for 2 h after drug treatment. Spheroids were washed, fixated with 4% PFA, transferred into 96-well flat glass-bottom black microplate (Cellvis, Mountain View, CA), and mounted in wells.

[6] = system: H446 spheroids; assay: Spheroid ATP assay (Cell titer glo); type: cell-based, human; conditions: 72 h, Teri 1600 nM, Lur 1600 pM, Teri/Lur 1600 nM/pM
Procedure: Cell titer glo/ATP assay (Promega, Madison, WI) was used for ATP measurement in spheroids. After 72 h of drug treatments, intracellular spheroid's ATP concentration was measured by luminescence following the manufacturer protocol using Tecan Spark 10 plate reader.

[7] = system: H446 spheroids; assay: Spheroid LDH cytotoxicity/death assay; type: cell-based, human; conditions: 72 h
Procedure: as §4
LDH activity was measured using LDH Cytotoxicity Assay Kit following the manufacturer protocol (Thermo Fisher Scientific, Waltham, MA). Briefly, H446 and SBC3 spheroids after 72 hours of drug treatments were mixed with 10 μl 10× lysis buffer and incubated for 45 min in cell culture incubator. 50 μl of lysed cells from each sample were used to measure absorbance by plate reader (Tecan Spark 10, Salzburg, Austria). Percentage of cell cytotoxicity/death was calculated by using the following formula: […]

[8] = system: SCLC; conditions: relapsed / second-line SCLC patients; cited from earlier work

| Compound | ratio of pDRP1 (Ser616) to pDRP1 (Ser637) ([1]; SBC3, densitometry) | DRP1 expression level ([1]; SBC3, immunoblot) | DRP1 phosphorylation at Ser616, and Ser637 ([1]; SBC3, immunoblot) | DRP1 expression level [2] | DRP1 phosphorylation at Ser616, and Ser637 [2] | pDRP1 Ser616 green IF signal intensity [3] | pDRP1 Ser616 green IF signal intensity [4] | p21 [5] | DRP1 phosphorylation at Ser616 [5] | ATP level compared with the control [6] | percentage of dead cells [7] | CDK4 [5] | ORR [8] [%] | median PFS [8] [months] |
| --- | --- | --- | --- | --- | --- | --- | --- | --- | --- | --- | --- | --- | --- | --- |
| C/C(O)=C(\C#N)C(=O)Nc1ccc(C(F)(F)F)cc1 [Teriflunomide, teriflunomide] | significantly decreased in a dose-dependent manner | unaffected | significantly inhibited | unaffected | significantly inhibits | significant signal intensity decreased | significant signal intensity decreased | strongly elevated | dose-dependent inhibition | approximately 80% |  |  |  |  |
| COc1ccc2[nH]c3c(c2c1)CCN[C@]31CS[C@@H]2c3c(OC(C)=O)c(C)c4c(c3[C@H](COC1=O)N1[C@@H]2[C@H]2c3c(cc(C)c(OC)c3O)C[C@@H]([C@@H]1O)N2C)OCO4 [Lurbinectedin, lurbinectedin] |  |  |  |  |  |  |  |  | reduction | ~60% | significantly increased | inactivated | 32.7 | 3.5 |

— patent US20250041313A1, “COMBINATION THERAPY FOR TREATMENT OF CANCER” (CITY OF HOPE, priority 2023, published 2025)
